Data: patent US20140315797A1, “Novel N-Terminally Modified Insulin Derivatives” (priority 2010, published 2014)
Starred links: 1 amine or outer side, 2 acyl side, 3 side chain; linkers in the order of their positions; H or OH if unused. Positions of bridges follow the written chain, without caps; N, C: chain ends. Groups on a side chain read outwards from the residue. Chains are numbered I, II in the order given. No end group written: not given here. *: point of attachment. Phe(Nα-CONH2) = NC(=O)N[C@@H](Cc1ccccc1)C(=O)*; C20 diacid = O=C(O)CCCCCCCCCCCCCCCCCCC(=O)*; C18 diacid = O=C(O)CCCCCCCCCCCCCCCCC(=O)*; C16 diacid = O=C(O)CCCCCCCCCCCCCCC(=O)*; NMe2Phe = CN(C)[C@@H](Cc1ccccc1)C(=O)*; γGlu = O=C(O)[C@H](CCC(=O)[*:2])N[*:1]; Hydantoyl = NC(=O)NCC(=O)*; AEEA = NCCOCCOCC(=O)O; Me2Gly = CN(C)CC(=O)*

Legend:
[1] = biological target: T1, human insulin receptor (IR-A) (Homo sapiens, UniProt P06213); details: relative to affinity of human insulin; […] HSA in binding buffer
Method: (§1) The affinity of the acylated insulin analogues of this invention for the human insulin receptor is determined by a SPA assay (Scintillation Proximity Assay) microtiterplate antibody capture assay. SPA-PVT antibody-binding beads, anti-mouse reagent (Amersham Biosciences, Cat No. PRNQ0017) are mixed with 25 ml of binding buffer (100 mM HEPES pH 7.8; 100 mM sodium chloride, 10 mM MgSO4, 0.025% Tween-20). Reagent mix for a single Packard Optiplate (Packard No. 6005190) is composed of 2.4 μl of a 1:5000 diluted purified recombinant human insulin receptor (either with or without exon 11), an amount of a stock solution of A14Tyr[^125I]-human insulin corresponding to 5000 cpm per 100 μl of reagent mix, 12 μl of a 1:1000 dilution of F12 antibody, 3 ml of SPA-beads and binding buffer to a total of 12 ml. A total of 100 μl reagent mix is then added to each well in the Packard Optiplate and a dilution series of the insulin derivative is made in the Optiplate from appropriate samples. The samples are then incubated for 16 hours while gently shaken. The phases are the then separated by centrifugation for 1 min and the plates counted in a Topcounter. The binding data were fitted using the nonlinear regression algorithm in the GraphPad Prism 2.01 (GraphPad Software, San Diego, Calif.) and affinities are expressed relative (in percentage (%)) to the affinity of human insulin.
A related assay is also used wherein the binding buffer also contains 1.5% HSA in order to mimic physiological conditions

[2] = biological target: T1, human insulin receptor (IR-A); assay: Insulin receptor affinity, SPA antibody capture assay, 0% HSA; assay type: binding; details: relative to affinity of human insulin
Method: as §1

duodenum lumen enzymes = details: pH 7.4
Method: Degradation of insulin analogs using duodenum lumen enzymes (prepared by filtration of duodenum lumen content) from SPD rats. The assay is performed by a robot in a 96 well plate (2 ml) with 16 wells available for insulin analogs and standards. Insulin analogs ˜15 μM are incubated with duodenum enzymes in 100 mM Hepes, pH=7.4 at 37° C., samples are taken after 1, 15, 30, 60, 120 and 240 min and reaction quenched by addition of TFA. Intact insulin analogs at each point are determined by RP-HPLC. Degradation half time is determined by exponential fitting of the data and normalized to half time determined for the reference insulins, A14E, B25H, desB30 human insulin or human insulin in each assay. The amount of enzymes added for the degradation is such that the half time for degradation of the reference insulin is between 60 min and 180 min.

T1 sequence (P06213 28-746 isoform P06213-2 limits assumed): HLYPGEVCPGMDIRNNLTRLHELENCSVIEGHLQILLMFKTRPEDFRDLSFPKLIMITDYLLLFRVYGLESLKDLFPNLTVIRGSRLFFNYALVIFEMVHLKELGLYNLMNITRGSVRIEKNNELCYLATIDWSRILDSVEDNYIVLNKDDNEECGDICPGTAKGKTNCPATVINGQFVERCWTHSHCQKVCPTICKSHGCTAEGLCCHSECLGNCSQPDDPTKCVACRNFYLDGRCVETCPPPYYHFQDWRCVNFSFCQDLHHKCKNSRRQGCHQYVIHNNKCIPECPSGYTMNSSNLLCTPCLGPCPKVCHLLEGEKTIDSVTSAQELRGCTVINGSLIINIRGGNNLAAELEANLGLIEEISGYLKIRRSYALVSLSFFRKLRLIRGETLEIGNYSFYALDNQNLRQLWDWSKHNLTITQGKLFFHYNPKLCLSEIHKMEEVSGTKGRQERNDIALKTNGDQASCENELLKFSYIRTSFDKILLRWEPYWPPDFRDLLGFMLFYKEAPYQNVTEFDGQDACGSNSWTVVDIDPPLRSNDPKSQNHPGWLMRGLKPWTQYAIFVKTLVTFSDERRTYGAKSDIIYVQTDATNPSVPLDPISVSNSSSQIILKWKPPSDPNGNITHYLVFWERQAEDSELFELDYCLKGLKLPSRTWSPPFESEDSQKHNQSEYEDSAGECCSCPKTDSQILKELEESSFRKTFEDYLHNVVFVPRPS
T1 sequence (P06213 763-1382 partner limits assumed): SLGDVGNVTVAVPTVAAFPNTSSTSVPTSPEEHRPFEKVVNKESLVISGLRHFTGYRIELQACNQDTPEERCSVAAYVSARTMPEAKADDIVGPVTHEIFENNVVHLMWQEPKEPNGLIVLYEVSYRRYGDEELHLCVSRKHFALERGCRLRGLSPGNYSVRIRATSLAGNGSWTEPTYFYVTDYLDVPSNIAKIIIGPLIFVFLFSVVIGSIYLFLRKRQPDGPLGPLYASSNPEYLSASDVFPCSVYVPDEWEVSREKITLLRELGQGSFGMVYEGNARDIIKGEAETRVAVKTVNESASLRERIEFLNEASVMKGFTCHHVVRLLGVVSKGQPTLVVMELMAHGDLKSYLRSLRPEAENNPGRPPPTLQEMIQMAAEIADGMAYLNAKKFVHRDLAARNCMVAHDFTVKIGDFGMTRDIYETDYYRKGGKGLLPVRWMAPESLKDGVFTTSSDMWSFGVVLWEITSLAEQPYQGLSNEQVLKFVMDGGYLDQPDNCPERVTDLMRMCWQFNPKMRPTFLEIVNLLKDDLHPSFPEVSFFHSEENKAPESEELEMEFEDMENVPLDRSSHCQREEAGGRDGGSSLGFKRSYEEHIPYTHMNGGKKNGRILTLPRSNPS

In the case of “I: NMe2Phe-VNQHLCGSHLVEALHLVCGERGFHYTPK([AEEA-AEEA-γGlu-C20 diacid]) / II: Me2Gly-IVEQCCTSICSLEQLENYCN (disulfide I:6-II:6, I:18-II:19, II:5-II:10) [Example 7, A1(N^α,N^α-Dimethyl), A14E, B1(NP,N^α-dimethyl), B16H, B25H, B29K(N^εeicosanedioyl-gGlu-2xOEG), desB30 human insulin]”, the “Relative IR-A affinity (@ […] HSA) (%)e” value [1] is reported as 0.03%, the “Relative IR-A affinity (@ 0% HSA) (%)” value [2] is reported as 0.5% and the “Duodenum degradation. Relative stability vs. A14E, B25H, desB30 human insulin” value (duodenum lumen enzymes) is reported as 0.4.

In the case of “I: NMe2Phe-VNQHLCGSHLVEALYLVCGERGFHYPK([γGlu-C16 diacid]) / II: Me2Gly-IVEQCCTSICSLEQLENYCN (disulfide I:6-II:6, I:18-II:19, II:5-II:10) [Example 8, A1G(N^α,N^α-Dimethyl), A14E, B1F(N^α,N^α-dimethyl), B25H, desB27, B29K(N^εhexadecanedioyl-gGlu), desB30 human insulin]”, the “Relative IR-A affinity (@ […] HSA) (%)e” value [1] is reported as 0.18%, the “Relative IR-A affinity (@ 0% HSA) (%)” value [2] is reported as 2.7% and the “Duodenum degradation. Relative stability vs. A14E, B25H, desB30 human insulin” value (duodenum lumen enzymes) is reported as 6.8.

“I: NMe2Phe-VNQHLCGSHLVEALYLVCGERGFHYPK([γGlu-C18 diacid]) / II: Me2Gly-IVEQCCTSICSLEQLENYCN (disulfide I:6-II:6, I:18-II:19, II:5-II:10) [Example 4, A1(N^α, N^α-Dimethyl), A14E, B1(N^α, N^α-dimethyl), B25H, desB27, B29K(N^εoctadecanedioyl-gGlu), desB30 human insulin]” was tested, and the “Relative IR-A affinity (@ […] HSA) (%)e” value [1] was 0.03%, the “Relative IR-A affinity (@ 0% HSA) (%)” value [2] was 1.7% and the “Duodenum degradation. Relative stability vs. A14E, B25H, desB30 human insulin” value (duodenum lumen enzymes) was 8.6.

In the case of “I: {Phe(Nα-CONH2)}-VNQHLCGSHLVEALHLVCGERGFFYPK([AEEA-AEEA-γGlu-C20 diacid]) / II: Hydantoyl-IVEQCCTSICSLEQLENYCN (disulfide I:6-II:6, I:18-II:19, II:5-II:10) [Example 30, A1G(N^αcarbamoyl), A14E, B1F(N^αcarbamoyl), B16H, desB27, B29K(N^εeicosanedioyl-gGlu-2xOEG), desB30 human insulin]”, the “Duodenum degradation. Relative stability vs. A14E, B25H, desB30 human insulin” value (duodenum lumen enzymes) is reported as 4.9.

For “I: {Phe(Nα-CONH2)}-VNQHLCGSHLVEALYLVCGERGFFYPK([AEEA-AEEA-γGlu-C16 diacid]) / II: Hydantoyl-IVEQCCTSICSLEQLENYCN (disulfide I:6-II:6, I:18-II:19, II:5-II:10) [Example 20]”, the “Relative IR-A affinity (@ […] HSA) (%)e” value [1] was 0.48%, the “Relative IR-A affinity (@ 0% HSA) (%)” value [2] was 4.7% and the “Duodenum degradation. Relative stability vs. A14E, B25H, desB30 human insulin” value (duodenum lumen enzymes) was 1.8.

“I: {Phe(Nα-CONH2)}-VNQHLCGSHLVEALYLVCGERGFFYPK([AEEA-AEEA-γGlu-C20 diacid]) / II: Hydantoyl-IVEQCCTSICSLEQLENYCN (disulfide I:6-II:6, I:18-II:19, II:5-II:10) [Example 29, A1G(N^αcarbamoyl), A14E, B1F(N^αcarbamoyl), desB27, B29K(N^εeicosanedioyl-gGlu-2xOEG), desB30 human insulin]” was tested, and the “Relative IR-A affinity (@ […] HSA) (%)e” value [1] was 0.20%, the “Relative IR-A affinity (@ 0% HSA) (%)” value [2] was 2.6% and the “Duodenum degradation. Relative stability vs. A14E, B25H, desB30 human insulin” value (duodenum lumen enzymes) was 3.0.

In the case of “I: {Phe(Nα-CONH2)}-VNQHLCGSHLVEALYLVCGERGFFYPK([γGlu-C16 diacid]) / II: Hydantoyl-IVEQCCTSICSLEQLENYCN (disulfide I:6-II:6, I:18-II:19, II:5-II:10) [Example 19, A1G(N(alpha)carbamoyl), A14E, B1F(N(alpha)carbamoyl), desB27, B29K(N(eps)hexadecanedioyl-gGlu), desB30 human insulin]”, the “Relative IR-A affinity (@ […] HSA) (%)e” value [1] is reported as 0.14%, the “Relative IR-A affinity (@ 0% HSA) (%)” value [2] is reported as 5.0% and the “Duodenum degradation. Relative stability vs. A14E, B25H, desB30 human insulin” value (duodenum lumen enzymes) is reported as 3.0.
